Experimental data as given in ChEMBL document CHEMBL1201862, “PubChem BioAssay data set” (2004).
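Exposure lasted 48 hours, with cells grown in 96-well plates and compounds tested at five concentrations. GI50: concentration for 50% inhibition of growth.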 Active and inactive are the calls of the source. Rule as the data show it: active = GI50 up to about 1.1 µM and inactive = higher.

Tests used:
Assay in all cases: DTP human tumour cell line panel, 48 h
SF-539 = tested on: SF-539
NCI-H460 = tested on: NCI-H460
SNB-19 = tested on: SNB-19
CAKI-1 = tested on: CAKI-1
DU-145 = tested on: DU-145
RPMI-8226 = tested on: RPMI-8226
ACHN = tested on: ACHN
PC-3 = tested on: PC-3
OVCAR-3 = tested on: OVCAR-3
SNB-75 = tested on: SNB-75
SF-268 = tested on: SF-268
UACC-62 = tested on: UACC-62
MDA-N = tested on: MDA-N
OVCAR-4 = tested on: OVCAR-4
HOP-62 = tested on: HOP-62
TK-10 = tested on: TK-10
SK-OV-3 = tested on: SK-OV-3
UACC-257 = tested on: UACC-257
M14 = tested on: M14
MDA-MB-231 = tested on: MDA-MB-231
NCI-H226 = tested on: NCI-H226
A498 = tested on: A498
Hs-578T = tested on: Hs-578T
IGROV-1 = tested on: IGROV-1
SR = tested on: SR
SK-MEL-5 = tested on: SK-MEL-5
SW-620 = tested on: SW-620
OVCAR-8 = tested on: OVCAR-8
MOLT-4 = tested on: MOLT-4
COLO 205 = tested on: COLO 205
SN12C = tested on: SN12C
KM12 = tested on: KM12
A549 = tested on: A549
RXF 393 = tested on: RXF 393
SK-MEL-2 = tested on: SK-MEL-2
HL-60 = tested on: HL-60
EKVX = tested on: EKVX
SK-MEL-28 = tested on: SK-MEL-28
Malme-3M = tested on: Malme-3M
NCI/ADR-RES = tested on: NCI/ADR-RES
T47D = tested on: T47D
HT-29 = tested on: HT-29
SF-295 = tested on: SF-295
CCRF-CEM = tested on: CCRF-CEM
LOX IMVI = tested on: LOX IMVI
NCI-H23 = tested on: NCI-H23
UO-31 = tested on: UO-31
786-0 = tested on: 786-0
HCT-15 = tested on: HCT-15
HOP-92 = tested on: HOP-92
MDA-MB-435 = tested on: MDA-MB-435
K562 = tested on: K562
HCT-116 = tested on: HCT-116
OVCAR-5 = tested on: OVCAR-5
U-251 = tested on: U-251
NCI-H522 = tested on: NCI-H522
BT-549 = tested on: BT-549
HCC 2998 = tested on: HCC 2998
MCF7 = tested on: MCF7

Measured: GI50

CC12CCC(CC(=O)/C1=C(/Br)I)C2(C)C (stereo not given)
inactive: SF-539 15.7 µM | NCI-H460 > 100 µM | SNB-19 15.3 µM | CAKI-1 16.9 µM | DU-145 17.7 µM | RPMI-8226 6.25 µM | ACHN 18.2 µM | PC-3 11.1 µM | OVCAR-3 13.6 µM | SNB-75 16.3 µM | SF-268 14.6 µM | UACC-62 14.5 µM | MDA-N 12.2 µM | OVCAR-4 15.1 µM | HOP-62 17.9 µM | TK-10 18.8 µM | SK-OV-3 20.7 µM | UACC-257 16.2 µM | M14 14.4 µM | MDA-MB-231 5.57 µM | NCI-H226 13.8 µM | A498 19.3 µM | Hs-578T 18.7 µM | IGROV-1 16.9 µM | SR 15.8 µM | SK-MEL-5 11.4 µM | SW-620 17 µM | OVCAR-8 17.8 µM | MOLT-4 7.18 µM | COLO 205 17.2 µM | SN12C 15.8 µM | KM12 17.9 µM | A549 14.6 µM | RXF 393 4.6 µM | SK-MEL-2 13.7 µM | HL-60 3.43 µM | EKVX 19.5 µM | SK-MEL-28 16.2 µM | Malme-3M 12.7 µM | NCI/ADR-RES 15.3 µM | T47D 21.7 µM | HT-29 11.4 µM | CCRF-CEM 14.3 µM | NCI-H23 13.5 µM | UO-31 18.2 µM | 786-0 16.1 µM | HOP-92 17.3 µM | MDA-MB-435 13.7 µM | K562 11.2 µM | HCT-116 12.4 µM | OVCAR-5 2.02 µM
10.9 µM: HCT-15
active: SF-295 0.31 µM | LOX IMVI 0.0789 µM

COc1ccc(N[C@H](CSc2ccc(C)cc2)c2ccc(F)cc2)cc1
65.5 µM: HCT-15
inactive: SF-539 > 100 µM | NCI-H460 > 100 µM | SNB-19 > 100 µM | CAKI-1 > 100 µM | DU-145 > 100 µM | RPMI-8226 23.9 µM | ACHN > 100 µM | PC-3 > 100 µM | U-251 > 100 µM | OVCAR-3 > 100 µM | SNB-75 > 100 µM | SF-268 > 100 µM | UACC-62 65.8 µM | MDA-N 71.1 µM | OVCAR-4 67.5 µM | HOP-62 > 100 µM | TK-10 > 100 µM | SK-OV-3 > 100 µM | UACC-257 40 µM | NCI-H522 38.9 µM | BT-549 > 100 µM | M14 > 100 µM | MDA-MB-231 > 100 µM | IGROV-1 > 100 µM | SR 25.2 µM | SK-MEL-5 57.3 µM | SW-620 > 100 µM | OVCAR-8 > 100 µM | MOLT-4 3.23 µM | COLO 205 > 100 µM | SN12C > 100 µM | KM12 > 100 µM | A549 74.6 µM | RXF 393 68.5 µM | SK-MEL-2 > 100 µM | HCC 2998 > 100 µM | EKVX > 100 µM | SK-MEL-28 > 100 µM | NCI/ADR-RES > 100 µM | T47D 24.6 µM | HT-29 > 100 µM | SF-295 > 100 µM | CCRF-CEM > 100 µM | LOX IMVI 29.4 µM | NCI-H23 39.3 µM | UO-31 > 100 µM | 786-0 > 100 µM | MDA-MB-435 > 100 µM | K562 52 µM | HCT-116 45.8 µM | MCF7 61.8 µM | OVCAR-5 > 100 µM

CSc1ncnc2c1cnn2Cc1cn(COCC(O)CO)nn1 (stereo not given)
inactive: SF-539 > 100 µM | SNB-19 > 100 µM | CAKI-1 > 100 µM | DU-145 > 100 µM | RPMI-8226 > 100 µM | ACHN > 100 µM | PC-3 > 100 µM | U-251 > 100 µM | OVCAR-3 > 100 µM | SF-268 22.8 µM | UACC-62 > 100 µM | MDA-N > 100 µM | OVCAR-4 > 100 µM | HOP-62 > 100 µM | TK-10 > 100 µM | SK-OV-3 > 100 µM | UACC-257 > 100 µM | NCI-H522 21.2 µM | BT-549 > 100 µM | M14 > 100 µM | MDA-MB-231 > 100 µM | NCI-H226 > 100 µM | A498 > 100 µM | IGROV-1 > 100 µM | SR > 100 µM | SK-MEL-5 > 100 µM | SW-620 > 100 µM | OVCAR-8 > 100 µM | MOLT-4 > 100 µM | COLO 205 > 100 µM | SN12C > 100 µM | KM12 > 100 µM | A549 > 100 µM | SK-MEL-2 > 100 µM | HL-60 > 100 µM | HCC 2998 > 100 µM | EKVX > 100 µM | SK-MEL-28 > 100 µM | NCI/ADR-RES > 100 µM | T47D > 100 µM | HT-29 > 100 µM | SF-295 > 100 µM | CCRF-CEM > 100 µM | LOX IMVI > 100 µM | NCI-H23 > 100 µM | UO-31 > 100 µM | 786-0 > 100 µM | HOP-92 > 100 µM | MDA-MB-435 > 100 µM | HCT-116 > 100 µM | MCF7 > 100 µM | OVCAR-5 > 100 µM
> 100 µM: HCT-15
